Measurements from patent US20250197357A1, “PPARG INVERSE AGONISTS AND USES THEREOF” (Flare Therapeutics Inc., priority 2022, published 2025).
pEC50: −log10 of the molar value.

How the values were obtained:
[1] = biological target: T1, PPARG/RXRA LBD heterodimer (Homo sapiens, UniProt P37231); assay: PPARγ-NCOR1 recruitment assay (TR-FRET); assay type: binding; conditions: NCOR1 ID2 peptide, 80 nM Rosiglitazone, 3 hours, read-out: PPARG - NCOR recruitment assay EC50
T1 construct: 2 nM WT PPARG LBD (e. coli expressed, His-TEV-Q203-Y477); fused on or other part: N-terminal His tag with TEV site on the PPARG LBD
Method: Compound potency (EC50) and maximal extent of NCOR1 recruitment to PPARG were assessed a TR-FRET binding assay measuring association of a biotinylated NCOR1 ID2 peptide (Biotin-[…]-amide) to PPARG/RXRA LBD heterodimer. Specifically, a 20 microliters of TR-FRET master mix consisting of 2 nM WT PPARG LBD (e. coli expressed, His-TEV-Q203-Y477; Uniprot ID P37231-2), 2 nM WT RXRA LBD or mutant S427F RXRA LBD (e. coli expressed, Flag-TEV-E228-T462; […]. Mixtures were incubated for 3 hours and read in an EnVision plate reader (Perkin Elmer) with Ex/Em 615/665. To determine the potency (EC50) and extent of NCOR1 recruitment, TR-FRET ratios were normalized to the average ratio of DMSO control wells (0%) and to the average maximum ratio for positive control compound (T0070907 (2-chloro-5-nitro-N-4-pyridinyl-benzamide); defined as 100%) in CDD Vault and analyzed using the Levenberg-Marquardt algorithm.
T1 sequence (O75376 2251-2273 limits assumed, one chain of several, further chain): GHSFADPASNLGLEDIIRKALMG

[2] = biological target: T2, PPARG/RXRA LBD heterodimer (Homo sapiens, UniProt P37231); assay: PPARγ-MED1 blockade assay (TR-FRET); assay type: binding; conditions: MED1 LxxLL peptide, 80 nM Rosiglitazone, 3 hours
T2 construct: His-TEV-Q203-Y477; Uniprot ID P37231-2; made in house; host or cells: E. coli
T2 sequence (P37231 203-477 isoform P37231-2): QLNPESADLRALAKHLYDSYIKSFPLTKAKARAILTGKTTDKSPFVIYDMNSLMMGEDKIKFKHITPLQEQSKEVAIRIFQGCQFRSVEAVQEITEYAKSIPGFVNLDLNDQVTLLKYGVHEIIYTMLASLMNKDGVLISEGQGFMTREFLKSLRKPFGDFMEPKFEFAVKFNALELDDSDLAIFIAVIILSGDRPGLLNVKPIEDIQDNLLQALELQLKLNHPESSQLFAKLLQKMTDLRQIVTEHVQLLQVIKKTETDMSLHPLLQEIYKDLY
T2 sequence (P19793 228-462 partner limits assumed): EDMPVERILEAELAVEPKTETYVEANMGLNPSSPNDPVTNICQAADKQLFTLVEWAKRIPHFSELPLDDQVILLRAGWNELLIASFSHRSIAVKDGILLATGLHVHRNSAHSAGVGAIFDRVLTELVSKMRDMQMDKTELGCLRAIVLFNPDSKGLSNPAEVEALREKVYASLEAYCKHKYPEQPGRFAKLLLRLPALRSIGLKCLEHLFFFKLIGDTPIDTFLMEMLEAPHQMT
Method: Compound potency (IC50) and maximal extent of MED1 repulsion to PPARG were assessed a TR-FRET binding assay measuring association of a biotinylated MED1 LxxLL peptide (Biotin—[…]-amide) to PPARG/RXRA LBD heterodimer. Specifically, a 20 microliters of TR-FRET master mix consisting of 2 nM WT PPARG LBD (e. coli expressed, His-TEV-Q203-Y477; Uniprot ID P37231-2), 2 nM WT RXRA LBD (e. coli expressed, Flag-TEV-E228-T462; […]. Mixtures were incubated for 3 hours and read in an EnVision plate reader (Perkin Elmer) with Ex/Em 615/665. To determine the potency (IC50) and extent of MED1 repulsion, TR-FRET ratios were normalized to the average ratio of DMSO control wells (0%) and to the average minimum ratio for positive control compound (GW9662 (2-chloro-5-nitrobenzanilide); defined as 100%) in CDD Vault and analyzed using the Levenberg-Marquardt algorithm.

[3] = test system: ANGPTL4, a PPARG target gene, in HT1197 (RXRA S427F mutation) cells; assay: Bladder cancer pharmacodynamic assay (HT1197 cell assay, qPCR of PPARG target genes); assay type: cell-based; conditions: Homo sapiens, 100 nM compound, 24 hours, relative to DMSO control
Method: 5637 (PPARG amplified) and HT1197 (RXRA S427F mutation) cells were used for assessment of modulation of PPARG target genes using quantitative PCR. Cells were treated for 24 hours with PPARG inverse agonists prior to analysis of FABP4 (IDT, Cat: Hs.PT 58.20106818) and ANGPTL4 (IDT, Cat: Hs.PT 58.25480012) expression, with expression of the housekeeping gene TBP (IDT, Cat: Hs.PT 58v.39858774) used to normalize expression across samples. Quantitative PCR was performed using an ABI QuantStudio 7 Flex Reaction system. Data were analyzed and reported relative to DMSO control using the comparative Ct method (ΔΔCt).

Compound	pEC50 [1]	pEC50 [2]	inhibition at 0.1 µM [3] [%]
CS(=O)(=O)c1ccc(C#N)cc1C(=O)Nc1cc(F)cc(C#N)c1 [Example 25, 5-cyano-N-(3-cyano-5-fluorophenyl)-2-(methylsulfonyl) benzamide]	6.00 to 7.00	6.00 to 7.00	77
N#Cc1ccc(SC(F)(F)F)c(C(=O)Nc2cc(F)cc(Oc3ccc(Cl)cc3)c2)c1 [Example 26, N-(3-(4-chlorophenoxy)-5-fluorophenyl)-5-cyano-2-((trifluorometh-yl)thio)benzamide]	6.00 to 7.00	6.00 to 7.00	-160
CN1Cc2ccc(-c3c(F)cc(NC(=O)c4cc(C#N)ccc4SC(F)(F)F)cc3F)cc2C1=O [Example 27, 5-cyano-N-(3,5-difluoro-4-(2-methyl-3-oxoisoindolin-5-yl)phenyl)-2-((trifluorometh-yl)thio)benzamide]	6.00 to 7.00	6.00 to 7.00	79
Cn1cc(-c2c(F)cc(NC(=O)c3cc(C#N)ccc3S(C)(=O)=O)cc2F)cn1 [Example 28, 5-cyano-N-(3,5-difluoro-4-(1-methyl-1H-pyrazol-4-yl)phenyl)-2-(methylsulfonyl) benzamide]	6.00 to 7.00	6.00 to 7.00	72
Cn1cc(-c2c(F)cc(NC(=O)c3cc(C#N)ccc3SC(F)(F)F)cc2F)cn1 [Example 29, 5-cyano-N-(3,5-difluoro-4-(1-methyl-1H-pyrazol-4-yl)phenyl)-2-((trifluorometh-yl)thio)benzamide]	6.00 to 7.00	6.00 to 7.00	65
Cc1cc(NC(=O)c2cc(C#N)ccc2S(C)(=O)=O)cnc1C(F)(F)F [Example 30, 5-cyano-N-(5-methyl-6-(trifluorometh-yl)pyridin-3-yl)-2-(methylsulfonyl) benzamide]	5.00 to 6.00	5.00 to 6.00	42
CS(=O)(=O)c1cnc(C#N)cc1C(=O)Nc1cc(F)cc(F)c1 [Example 31, 2-cyano-N-(3,5-difluorophenyl)-5-(methylsulfonyl)isonicotinamide]	7.00 to 8.00	7.00 to 8.00	72
CS(=O)(=O)c1cnc(C#N)cc1C(=O)Nc1ccnc(C(F)(F)F)c1 [Example 32, 2-cyano-5-(methylsulfonyl)-N-(2-(trifluoromethyl)py-ridin-4-yl)isonicotinamide]	6.00 to 7.00	6.00 to 7.00	80
N#Cc1ccc(S(=O)(=O)CC(F)(F)F)c(C(=O)Nc2cc(F)cc(F)c2)c1 [Example 33, 5-cyano-N-(3,5-difluorophenyl)-2-((2,2,2-trifluoroethyl)sulfonyl)benzamide]	5.00 to 6.00	5.00 to 6.00	19
N#Cc1cc(C(=O)Nc2cc(F)cc(F)c2)c(S(=O)(=O)CC(F)(F)F)cn1 [Example 34, 2-cyano-N-(3,5-difluorophenyl)-5-((2,2,2-trifluoroethyl)sulfonyl) isonicotinamide]	6.00 to 7.00	6.00 to 7.00	59
